Source: ChEMBL document CHEMBL6087402, “Design, synthesis, and in vitro and in vivo biological evaluation of dihydroartemisinin derivatives as potent anti-cancer agents with ferroptosis-inducing and apoptosis-activating properties” (Eur J Med Chem, 2025)
Active and inactive are the calls of the source. No cut-off for these calls is given here.

Tests used:
HCT-116 [1] = test: Induction of apoptosis in human HCT-116 cells assessed as late apoptotic cells at 3 uM incubated for 72 hrs by Annexin V-FITC/PI staining based flow cytometry (reference value: 0.98 %); format: functional
[2] = Toxicity in BALB/c mouse assessed as apparent damage in lungs at 100 mg/kg, ip administered continuously for 7 days by H and E staining based analysis; format: organism-based; settings: in vivo, 168 h, time 7 day
SW-620 = test: Anti-proliferative activity against human SW620 cells incubated for 72 hrs by MTT assay; format: functional, cell-based; settings: SW-620, 72 h
HCT-116 [3] = test: Induction of oxidative stress in human HCT-116 cells assessed as increase in MDA level incubated for 24 hrs; format: functional, cell-based; settings: dose <= 3.0 µM
[4] = Selectivity index, ratio of IC50 for human L02 cells to IC50 for human SW620 cells; format: toxicity; settings: L02 cells versus SW620 cells, read-out: Ratio IC50
[5] = Toxicity in BALB/c mouse assessed as change fur luster at 100 mg/kg, ip administered continuously for 7 days; format: organism-based; settings: in vivo, 168 h, time 7 day
HCT-116 [6] = test: Antitumor activity against human HCT-116 cells xenografted in mouse assessed as reduction in nuclear-cytoplasmic ratio at 50 mg/kg, ip administered once in every 2 days for 21 days by H and E staining based analysis; format: functional, organism-based; settings: time 21.0 day
HCT-116 [7] = test: Induction of apoptosis in human HCT-116 cells assessed as increase in Bax level upto 3 uM incubated for 72 hrs by Western blot analysis; format: functional, cell-based
HCT-116 [8] = test: Induction of mitochondrial membrane potential loss in human HCT-116 cells assessed as increase in green fluorescence incubated upto 3 uM by JC-1 dye based analysis; format: functional, cell-based
[9] = Toxicity in BALB/c mouse assessed as apparent damage in heart at 100 mg/kg, ip administered continuously for 7 days by H and E staining based analysis; format: organism-based; settings: in vivo, 168 h, time 7 day
HCT-116 [10] = test: Induction of cell cycle arrest in human HCT-116 cells assessed as accumulation at G0/G1 phase at 0.3 uM incubated for 72 hrs by PI staining based flow cytometry (reference value: 80.71 %); format: functional
HCT-116 [11] = test: Anti-proliferative activity against human HCT-116 cells assessed as reduction in total STAT3 level upto 3 uM incubated for 72 hrs by Western blot analysis; format: functional, cell-based
[12] = Toxicity in BALB/c mouse assessed as diarrhea at 100 mg/kg, ip administered continuously for 7 days; format: organism-based; settings: in vivo, 168 h, time 7 day
HCT-116 [13] = test: Induction of ferroptosis in human HCT-116 cells incubated for 72 hrs in presence of DFO by MTT assay; format: functional, cell-based
[14] = Toxicity in BALB/c mouse assessed as decrease in body weight at 100 mg/kg, ip administered continuously for 7 days; format: organism-based; settings: in vivo, 168 h, time 7 day
HCT-116 [15] = test: Induction of apoptosis in human HCT-116 cells assessed as early apoptotic cells at 0.3 uM incubated for 72 hrs by Annexin V-FITC/PI staining based flow cytometry (reference value: 1.55 %); format: functional
HCT-116 [16] = test: Inhibition of colony formation in human HCT-116 cells incubated for 7 to 12 days by crystal violet staining based analysis; format: functional, cell-based; settings: dose <= 3.0 µM, time 7-12 day
HCT-116 [17] = test: Inhibition of cell proliferation in human HCT-116 cells incubated for 12 hrs by EdU assay; format: functional, cell-based; settings: dose <= 3.0 µM
HCT-116 [18] = test: Induction of cell cycle arrest in human HCT-116 cells assessed as accumulation at S phase at 0.03 uM incubated for 72 hrs by PI staining based flow cytometry (reference value: 23.49 %); format: functional
[19] = Toxicity in BALB/c mouse assessed as apparent damage in spleen at 100 mg/kg, ip administered continuously for 7 days by H and E staining based analysis; format: organism-based; settings: in vivo, 168 h, time 7 day
HCT-116 [20] = test: Antitumor activity against human HCT-116 cells xenografted in mouse at 50 mg/kg, ip administered once in every 2 days for 21 days relative to control; format: functional; settings: HCT-116, 504 h, time 21 day, read-out: TGI
HCT-116 [21] = test: Induction of apoptosis in human HCT-116 cells assessed as early apoptotic cells at 0.03 uM incubated for 72 hrs by Annexin V-FITC/PI staining based flow cytometry (reference value: 1.55 %); format: functional
HCT-116 [22] = test: Induction of apoptosis in human HCT-116 cells assessed as necrotic cells at 3 uM incubated for 72 hrs by Annexin V-FITC/PI staining based flow cytometry (reference value: 0.33 %); format: functional
HCT-116 [23] = test: Induction of ferroptosis in human HCT-116 cells incubated for 72 hrs in presence of Fer-1 by MTT assay; format: functional, cell-based
HCT-116 [24] = test: Inhibition of cell proliferation in human HCT-116 cells at 3 uM incubated for 12 hrs by EdU assay (reference value: 48.14 %); format: functional
[25] = Toxicity in BALB/c mouse assessed as animal death at 100 mg/kg, ip administered continuously for 7 days; format: organism-based; settings: in vivo, 168 h, time 7 day
HCT-116 [26] = test: Induction of cell cycle arrest in human HCT-116 cells assessed as accumulation at G2/M phase at 3 uM incubated for 72 hrs by PI staining based flow cytometry (reference value: 15.79 %); format: functional
HCT-116 [27] = test: Induction of apoptosis in human HCT-116 cells assessed as late apoptotic cells at 0.03 uM incubated for 72 hrs by Annexin V-FITC/PI staining based flow cytometry (reference value: 0.98 %); format: functional
[28] = Toxicity in BALB/c mouse assessed as toxic effect upto 100 mg/kg, ip administered continuously for 7 days; format: organism-based; settings: in vivo, 168 h, time 7 day
HCT-116 [29] = test: Induction of apoptosis in human HCT-116 cells assessed as necrotic cells at 0.03 uM incubated for 72 hrs by Annexin V-FITC/PI staining based flow cytometry (reference value: 0.33 %); format: functional
[30] = Toxicity in BALB/c mouse assessed as difficulty in breathing at 100 mg/kg, ip administered continuously for 7 days; format: organism-based; settings: in vivo, 168 h, time 7 day

SMILES: C[C@@H]1CC[C@H]2[C@@H](C)C(OC(=O)Nc3ccc(Cl)cc3)O[C@@H]3O[C@@]4(C)CC[C@H]1[C@]32OO4 (stereo partly specified)
- Activity (HCT-116 [1]): 26.2%
- Activity [2]: Non-toxic
- IC50 (SW-620): 600 nM
- Activity (HCT-116 [3]): Dose-dependent-effect
- selectivity ratio [4]: 28
- Activity [5]: Non-toxic
- Activity (HCT-116 [6]): Active
- Activity (HCT-116 [7]): Active
- Activity (HCT-116 [8]): Active
- Activity [9]: Non-toxic
- Activity (HCT-116 [10]): 37.62%
- Activity (HCT-116 [11]): Active
- Activity [12]: Non-toxic
- Activity (HCT-116 [13]): inactive
- Activity [14]: Non-toxic
- Activity (HCT-116 [15]): 9.8%
- inhibition (HCT-116 [16]): Dose-dependent-effect
- inhibition (HCT-116 [17]): Dose-dependent-effect
- Activity (HCT-116 [18]): 25.54%
- Activity [19]: Non-toxic
- inhibition in vivo at 50 mg/kg (HCT-116 [20]): ≤ 58.7%
- Activity (HCT-116 [21]): 4.11%
- Activity (HCT-116 [22]): 0.026%
- Activity (HCT-116 [23]): inactive
- inhibition at 3 µM (HCT-116 [24]): 11.3%
- Activity [25]: Non-toxic
- Activity (HCT-116 [26]): 33.23%
- Activity (HCT-116 [27]): 2.4%
- Activity [28]: Non-toxic
- Activity (HCT-116 [29]): 0.22%
- Activity [30]: Non-toxic
